{"source": "patent US6977142B2", "about": "“High-throughput turbidometric assay for screening inhibitors of protein disulfide isomerase activity” (AGY Therapeutics, Inc., priority 2003, dated 2005)", "key": {"[1]": {"molecular_target": "T1, Protein disulfide isomerase (PDI) from bovine liver (Bos taurus, UniProt P05307)", "T1 construct": "Protein disulfide isomerase (PDI) from bovine liver (Catalog number P3818); purchased Sigma P3818; host or cells: bovine liver (tissue-derived enzyme)", "T1 sequence (P05307 21-510)": "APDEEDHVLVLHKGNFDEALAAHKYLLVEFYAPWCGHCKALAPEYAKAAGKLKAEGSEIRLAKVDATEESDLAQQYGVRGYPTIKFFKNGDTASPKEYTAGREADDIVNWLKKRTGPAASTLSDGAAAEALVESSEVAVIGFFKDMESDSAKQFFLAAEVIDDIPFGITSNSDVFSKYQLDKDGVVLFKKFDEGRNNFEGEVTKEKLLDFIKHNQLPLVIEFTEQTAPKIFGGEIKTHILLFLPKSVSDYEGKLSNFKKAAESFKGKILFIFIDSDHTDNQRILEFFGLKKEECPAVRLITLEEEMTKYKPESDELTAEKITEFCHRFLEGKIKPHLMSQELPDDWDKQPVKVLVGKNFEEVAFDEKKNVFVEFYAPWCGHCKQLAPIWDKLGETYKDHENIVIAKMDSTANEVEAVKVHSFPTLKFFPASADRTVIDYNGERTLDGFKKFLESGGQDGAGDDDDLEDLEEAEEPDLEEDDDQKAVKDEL", "assay": "High-throughput turbidometric assay of PDI-catalyzed insulin reduction (OD650, H2O2 stop)", "type": "biochemical", "description": "Protein disulfide isomerase (PDI) from bovine liver (Catalog number P3818), insulin from bovine pancreas (Catalog number 14011), dithiothreitol (Catalog number D9779), H2O2 (Catalog number H6520) and bacitracin (Catalog number B0125) were purchased from Sigma. A stock solution of 1.6 mM insulin was prepared by dissolving insulin in 0.1 N HCl. Clear polystyrene 384-well assay plates were obtained from Greiner (Catalog number 781101). All reagents used in this study were of analytical grade.\nThe assay utilized the method according to Bonfils (1998) Eur J Biochem 254:420–427, but was miniaturized in 384-well plates. The assay buffer consisted of 100 mM potassium phosphate and 0.2 mM EDTA, pH 7.0. In a standard room temperature assay, insulin from a 1.6 mM stock solution and PDI from a 5 mg/mL stock were added to final concentrations of 0.16 mM and 33 ug/mL in assay buffer, respectively. Aliquots of the reaction mixture were then added at 30 μL per well to 384-well assay plates. To initiate the reaction, 5 μL of 7 mM dithiothreitol (final concentration 1 mM) was added and quickly mixed. The enzyme reaction was monitored at 650 nm on a SpectraMax Plus plate reader (Molecular Devices, Sunnyvale, Calif.).\nFor high-throughput screening, a Biomek 2000 liquid handling system (Beckman-Coulter, Palo Alto, Calif.) was used to add 5 μL of 1 M positive control H2O2 to each well in column 24 of the assay plates. Then a Biomek FX384 pipettor (Beckman-Coulter, Palo Alto, Calif.) was programmed to automate the subsequent additions. The pipettor aspirated 29 μL of the enzyme/substrate mixture, applied a 0.5-μL air gap, dipped into DMSO to wash the pipette tip exterior, pipetted 1 μL of 300 μM compound, and then dispensed the entire volume into the assay plate. After the dispense step, the compound was mixed well with the enzyme and substrate. Following a 10 min pre-incubation, 5 μL of 7 mM dithiothreitol was dispensed into the reaction wells. This was followed immediately by a mixing step, in which 20 μL of the mixture was aspirated and dispensed twice in the well. The reaction was allowed to proceed for 30 min and stopped by adding 5 μL of 1 M H2O2 (final concentration 125 mM) to each well. The optical density of each well was measured at 650 nm on the SpectraMax Plus plate reader.\nFor data analysis, the results are presented as mean±standard deviation. Dose-response curves were fitted by least square regression using Prism (version 3.03). The Z′ factor was calculated according to Zhang et al. (1999) J Biomol Screen 4:67–73."}, "PDI": {"molecular_target": "PDI (Homo sapiens, UniProt P07237)", "sequence (P07237 18-508, species assumed)": "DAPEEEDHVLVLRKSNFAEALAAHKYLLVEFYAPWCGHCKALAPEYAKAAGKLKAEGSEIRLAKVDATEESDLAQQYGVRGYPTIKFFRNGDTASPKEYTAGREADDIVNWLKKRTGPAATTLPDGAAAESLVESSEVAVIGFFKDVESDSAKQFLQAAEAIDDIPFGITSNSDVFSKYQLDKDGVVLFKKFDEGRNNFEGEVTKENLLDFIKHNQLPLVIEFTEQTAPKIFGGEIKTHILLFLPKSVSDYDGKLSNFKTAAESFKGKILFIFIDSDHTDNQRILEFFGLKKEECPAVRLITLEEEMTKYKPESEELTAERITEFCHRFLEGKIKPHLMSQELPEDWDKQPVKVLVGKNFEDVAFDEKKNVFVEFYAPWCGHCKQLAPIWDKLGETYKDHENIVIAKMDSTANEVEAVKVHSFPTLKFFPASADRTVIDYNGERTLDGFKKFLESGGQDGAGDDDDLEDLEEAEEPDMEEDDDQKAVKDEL", "details": "insulin reduction assay, reported in the literature; cited from earlier work"}}, "note": "Values joined by “and” are separate entries in the source; they are usually repeats but may differ in a detail not shown here. Identical values can stand only once. Where a SMILES comes first, the peptide text is derived from it."}
{"smiles": "CC[C@H](C)[C@H](N)C1=N[C@H](C(=O)N[C@@H](CC(C)C)C(=O)N[C@H](CCC(=O)O)C(=O)N[C@H](C(=O)N[C@H]2CCCCNC(=O)[C@H](CC(N)=O)NC(=O)[C@@H](CC(=O)O)NC(=O)[C@H](Cc3cnc[nH]3)NC(=O)[C@@H](Cc3ccccc3)NC(=O)[C@H]([C@@H](C)CC)NC(=O)[C@@H](CCCN)NC2=O)[C@@H](C)CC)CS1", "note": "[bacitracin] (HELM PEPTIDE1{[CC[C@H](C)[C@H](N)C1=N[C@H](C(=O)[*:2])CS1].L.[dE].I.K.[NCCC[C@@H](N[*:1])C(=O)[*:2]].I.[dF].H.[dD].N}$PEPTIDE1,PEPTIDE1,5:R3-11:R2$$$V2.0)", "values": [{"measurement": "behaviour as stop reagent", "setting": "[1]; 2 mM bacitracin added 30 min after initiation of the reaction", "result": "slow inhibitor"}, {"measurement": "inhibition of the enzyme reaction", "setting": "[1]; bacitracin incubated with the enzyme prior to the addition of dithiothreitol", "result": "dramatically inhibited the enzyme reaction"}, {"measurement": "Hill slope", "setting": "[1]; dose-response curve, non-linear regression", "result": "1.2±0.2 and 1.2"}, {"measurement": "IC50", "setting": "[1]; inhibitor incubated with enzyme and insulin 10 minutes prior to initiation with dithiothreitol, dose-response", "result": "152 ± 25", "unit": "µM"}, {"measurement": "IC50", "setting": "PDI", "result": "~200", "unit": "µM"}]}
